Laboratory results as given in the supplement of paper PMC10307832.

Tests used:
Test in all cases: relative viability (nuclei count vs DMSO), 5 days (fraction); higher = more cells survive
[1] = compound: C1=CC2=NC=CN=C2C=C1/C=C/3\C(=O)NC(=O)S3 + Nc1ncn([C@H]2C[C@H](O)[C@@H](CO)O2)c(=O)n1 [Decitabine] (partner 2 µM)
Outline: (§1)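 Five library-drug doses in √10 steps were combined with a fixed anchor-drug dose, or a single drug was given alone, by pin tool to lung cancer cell lines in 1536-well plates the day after seeding. Nuclei were stained and counted after 5 days. Relative viability is the nuclei count in treated wells over that in vehicle wells, taken as the median of duplicate plates.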

[2] = compound: C1=CC2=NC=CN=C2C=C1/C=C/3\C(=O)NC(=O)S3 + N=C(N)NC(=N)NCCc1ccccc1 [Phenformin] (partner 250 µM)
Outline: as §1

[3] = compound: C1=CC2=NC=CN=C2C=C1/C=C/3\C(=O)NC(=O)S3 + CC(=O)Nc1cccc(-n2c(=O)n(C3CC3)c(=O)c3c(Nc4ccc(I)cc4F)n(C)c(=O)c(C)c32)c1 [Trametinib] (partner 0.02 µM)
Outline: as §1

[4] = compound: CCN1CCN(c2ccc(Nc3cc(N(C)C(=O)Nc4c(Cl)c(OC)cc(OC)c4Cl)ncn3)cc2)CC1 [BGJ398] + CC1(C)CCC(c2ccc(Cl)cc2)=C(CN2CCN(c3ccc(C(=O)NS(=O)(=O)c4ccc(N[C@H](CCN5CCOCC5)CSc5ccccc5)c(S(=O)(=O)C(F)(F)F)c4)cc3)CC2)C1 [Navitoclax] (partner 0.5 µM)
Outline: as §1

Cell Line	relative viability ([1]; first compound 0.02 µM)	relative viability ([1]; first compound 0.06325 µM)	relative viability ([1]; first compound 0.2 µM)	relative viability ([1]; first compound 0.6325 µM)	relative viability ([1]; first compound 2 µM)	relative viability ([2]; first compound 0.02 µM)	relative viability ([2]; first compound 0.06325 µM)	relative viability ([2]; first compound 0.2 µM)	relative viability ([2]; first compound 0.6325 µM)	relative viability ([2]; first compound 2 µM)	relative viability ([3]; first compound 0.02 µM)	relative viability ([3]; first compound 0.06325 µM)	relative viability ([3]; first compound 0.2 µM)	relative viability ([3]; first compound 0.6325 µM)	relative viability ([3]; first compound 2 µM)	relative viability ([4]; first compound 0.01 µM)	relative viability ([4]; first compound 0.03162 µM)	relative viability ([4]; first compound 0.1 µM)	relative viability ([4]; first compound 0.3162 µM)	relative viability ([4]; first compound 1 µM)
NCI-H522	0.643	0.706	0.594	0.74	0.683	0.65	0.608	0.666	0.564	0.579	0.75	0.781	0.806	0.771	0.659	–	–	–	–	–
HCC-15	0.625	0.686	0.717	0.561	0.553	0.497	0.471	0.488	0.457	0.336	0.41	0.393	0.397	0.353	0.263	0.723	0.75	0.747	0.734	0.769
A-427	0.541	0.583	0.55	0.538	0.491	0.291	0.247	0.374	0.332	0.261	0.777	0.773	0.725	0.75	0.596	0.978	0.92	0.914	0.67	0.624
NCI-H2228	–	–	–	–	–	0.281	0.329	0.445	0.361	0.213	0.51	0.556	0.562	0.398	0.338	0.728	1.04	0.998	0.893	0.867
NCI-H1734	0.483	–	0.517	0.501	0.489	0.392	0.35	0.384	0.343	0.279	0.645	–	0.802	0.625	0.653	0.836	0.878	0.81	0.832	0.826
PC-14	0.242	0.272	0.237	0.204	0.275	0.718	0.719	0.641	0.649	0.452	0.702	1.16	0.835	0.738	0.938	1.01	1.05	1.06	1.04	0.998
NCI-H1915	0.238	0.281	0.28	0.252	0.281	0.354	0.415	0.378	0.371	0.375	0.289	0.305	0.323	0.301	0.291	0.73	0.786	0.774	0.77	0.766
NCI-H1666	0.717	0.709	0.775	0.691	0.672	0.36	0.481	0.578	0.541	0.548	0.826	0.813	0.87	0.958	0.696	0.949	1.01	0.91	0.967	0.842
HCC-366	0.284	–	0.386	0.306	0.276	0.609	–	0.632	0.612	0.575	0.307	–	0.39	0.311	0.309	1.01	1.18	0.995	1.02	1.1
SK-MES-1	0.353	0.403	0.437	0.357	0.331	0.623	0.697	0.713	0.626	0.645	0.509	0.564	0.643	0.566	0.503	1.27	1.32	1.24	1.33	1.24
SW 1573	0.506	0.65	0.603	0.544	0.367	0.377	0.443	0.429	0.323	0.287	0.538	0.683	0.57	0.572	0.445	0.82	1.22	1.05	0.981	0.91
NCI-H661	0.555	0.571	0.574	0.527	0.575	0.239	0.393	0.289	0.298	0.249	0.709	0.557	0.606	0.526	0.618	–	–	–	–	–
PC-3 [JPC-3]	0.785	0.911	0.822	0.801	0.868	0.478	0.542	0.467	0.487	0.487	0.627	0.772	0.734	0.736	0.646	0.756	–	0.773	0.637	0.777
NCI-H1623	–	–	–	–	–	0.553	0.675	0.622	0.608	0.494	–	–	–	–	–	–	–	–	–	–
Calu-6	–	–	–	–	–	–	–	–	–	–	–	–	–	–	–	0.794	0.838	0.796	0.788	0.795
